Measurements from patent US20050020588A1, “Cysteine protease inhibitors” (priority 1999, published 2005).
pKi: −log10 of the molar value.

Key:
Format in all cases: biochemical
Mammalian Cathepsin S = Mammalian Cathepsin S (Homo sapiens, UniProt P25774); experiment: Ki competitive inhibition, mammalian cathepsin S; conditions: Table 1, first line of each CAP-P2 block; read-out: Ki competitive inhibition measurements vs Mammalian Cathepsin S
Experimental: Cathepsin S (Mammalian, murine and rat)
Assays were performed in 100 mM sodium phosphate, 100 mM NaCl, pH 6.5 (buffer) in white 384 well plates (Coming Costar). Eight inhibitors were assayed per plate.
Inhibitor dilutions were performed on a 96 well V-bottomed polypropylene plate (Corning Costar). 100 μl of buffer was placed in wells 2-5 and 7-12 of rows A, B, C and D. Sufficient of each inhibitor at 10 mM in DMSO was placed into wells A1-D1 and A6-D6 to give the desired final concentration when the volume in the well was made up to 200 μl with buffer. Column 1 was made up to 200 μl with buffer, mixed by aspirating and dispensing 100 μl in the well, and 100 μl transferred to column 2. The pipette tips were changed and the mixing and transferral repeated to column 5. This process was repeated for columns 6-10.
Substrate dilutions were performed on a 96 deep well polypropylene plate (Beckman Coulter). 280 μl of buffer was placed in wells B-H of columns 1 and 2.70 μl of 10 mM boc-Val-Leu-Lys-AMC was placed in A1 and A2. 2×250 μl of buffer was added to wells A1 and A2, mixed by aspirating and dispensing 280 μl in the well, and 280 μl transferred to row B. The pipette tips were changed and the process repeated down the plate to row H.
Column 1 of the substrate dilution plate was distributed at 10 μl per well into alternate rows beginning at row A. Column 2 was distributed to alternate rows beginning at row B. Row A of the inhibitor dilution plate was distributed at 10 μl per well to alternate rows and columns starting at A1. Row B was distributed to alternate rows and columns starting at A2. Row C was distributed to alternate rows and columns starting at B1 and row D was distributed to alternate rows and columns starting at B2. The assay was started by the addition of 30 μl per well of 20 nM cathepsin S in buffer containing 10 mM 2-mercaptoethanol.
(§1) Data were saved as text files and imported into Excel. The initial rates were determined by linear regression and then fitted to the competitive inhibition equation using SigmaPlot.

Mammalian Cathepsin K = molecular target: T1, Mammalian Cathepsin K (Homo sapiens, UniProt P43235); experiment: Ki competitive inhibition, cathepsin K; conditions: Table 1, third line of each CAP-P2 block; read-out: Ki competitive inhibition measurements vs Mammalian Cathepsin K
T1 sequence (P43235 115-329): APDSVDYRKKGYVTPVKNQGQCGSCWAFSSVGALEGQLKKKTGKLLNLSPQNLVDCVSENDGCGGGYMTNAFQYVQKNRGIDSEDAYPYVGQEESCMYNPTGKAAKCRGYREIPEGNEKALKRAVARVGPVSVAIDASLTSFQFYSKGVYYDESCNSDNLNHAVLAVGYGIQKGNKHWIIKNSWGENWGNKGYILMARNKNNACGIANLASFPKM
Experimental: (§2) Assays were performed essentially as above. For cathepsin L, the buffer used was 100 mM sodium acetate, 1 mM EDTA, pH 5.5 and the substrate was D-Val-Leu-Lys-AMC with a highest concentration of 100 μM. For cathepsin K, the buffer used was 100 mM MES/Tris, 1 mM EDTA, pH 7.0 and the substrate was D-Ala-Leu-Lys-AMC with a highest concentration of 250 μM.
Convenient assays for cathepsin K arere carried out using human recombinant enzyme. Standard assay conditions for the determination of kinetic constants used a fluorogenic peptide substrate, typically H-D-Ala-Leu-Lys-AMC, and were determined in either 100 mM Mes/Tris, pH 7.0 containing 1 mM EDTA and 10 mM 2-mercaptoethanol or 100 mM Na acetate, pH 5.5 containing 5 mM EDTA and 20 mM cysteine. The enzyme concentration used was 5 nM. The stock substrate solution was prepared at 10 mM in DMSO. Screens were carried out at a fixed substrate concentration of 60 μM and detailed kinetic studies with doubling dilutions of substrate from 250 μM. The total DMSO concentration in the assay was kept below 3%. All assays were conducted at ambient temperature. Product fluorescence (excitation at 390 nm, emission at 460 nm) was monitored with a Labsystems Fluoroskan Ascent fluorescent plate reader. Product progress curves were generated over 15 minutes following generation of AMC product.
Potential inhibitors are screened using the above assay with variable concentrations of test compound. Reactions were initiated by addition of enzyme to buffered solutions of substrate and inhibitor. Ki values were calculated according to equation 1 [formula] where ν0 is the velocity of the reaction, V is the maximal velocity, S is the concentration of substrate with Michaelis constant of KM, and I is the concentration of inhibitor. Determination of Falcipain 2 Proteolytic Catalytic Activity

Mammalian Cathepsin L = Mammalian Cathepsin L (Homo sapiens, UniProt P07711); experiment: Ki competitive inhibition, cathepsin L; conditions: Table 1, second line of each CAP-P2 block; read-out: Ki competitive inhibition measurements vs Mammalian Cathepsin L
Sequence of Mammalian Cathepsin L (P07711 114-333): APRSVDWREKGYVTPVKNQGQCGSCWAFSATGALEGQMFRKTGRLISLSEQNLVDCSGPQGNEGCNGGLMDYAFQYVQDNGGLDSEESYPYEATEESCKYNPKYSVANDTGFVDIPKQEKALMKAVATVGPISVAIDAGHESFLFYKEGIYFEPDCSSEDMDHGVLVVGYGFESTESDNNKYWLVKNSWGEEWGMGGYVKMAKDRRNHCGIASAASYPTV
Experimental: as §1, §2

Sequence of Mammalian Cathepsin S (P25774 115-331): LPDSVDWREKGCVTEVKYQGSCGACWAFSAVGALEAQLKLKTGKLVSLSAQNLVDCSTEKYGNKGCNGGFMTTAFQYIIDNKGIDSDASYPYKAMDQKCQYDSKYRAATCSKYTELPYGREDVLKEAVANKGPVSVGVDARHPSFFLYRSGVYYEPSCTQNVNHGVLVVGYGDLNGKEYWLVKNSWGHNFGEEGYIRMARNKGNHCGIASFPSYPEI

Row | pKi (Mammalian Cathepsin S) | pKi (Mammalian Cathepsin K) | pKi (Mammalian Cathepsin L) | Structure (SMILES)
1 | 6.62 | < 4.00 | 6.17 | Cc1cc(C(=O)N[C@@H](Cc2ccc(O)cc2)C(=O)N[C@H]2C(=O)CO[C@H]2C)oc1C [CAP6-L-Tyr/drawing 70]
2 | 5.64 | < 4.00 | 6.85 | Cc1cc(C(=O)N[C@@H](Cc2ccc(O)cc2)C(=O)N[C@@H]2COCC2=O)oc1C [CAP6-L-Tyr/drawing 73]
3 | 5.38 | 6.77 | 5.17 | CC(C)C[C@H](NC(=O)c1ccc(N(C)C)cc1)C(=O)N[C@H]1C(=O)CO[C@H]1C [CAP7-L-Leu/drawing 70]
4 | 5.17 | 5.51 | 4.33 | CCCCC(NC(=O)c1ccc(N(C)C)cc1)C(=O)NC1C(=O)COC1C [CAP7-L-Nle/drawing 70]
5 | 5.21 | 5.89 | 4.30 | CCCC[C@H](NC(=O)c1ccc(N(C)C)cc1)C(=O)N[C@@H]1C(=O)CO[C@H]1C [CAP7-L-Nle/drawing 71]
6 | 5.57 | 7.40 | 4.88 | C[C@H]1OCC(=O)[C@H]1NC(=O)[C@H](CC(C)(C)C)NC(=O)c1ccc(N(C)C)cc1 [CAP7-L-tBu-Ala/drawing 69]
7 | 6.43 | < 4.00 | < 4.00 | CC(C)CC[C@H](NC(=O)c1ccoc1)C(=O)N[C@@H]1C(=O)CO[C@H]1C [CAP8-L-hLeu/drawing 71]
8 | 6.70 | 4.70 | < 4.00 | C[C@@H]1OCC(=O)[C@@H]1NC(=O)[C@H](CC(C)(C)C)NC(=O)c1ccoc1 [CAP8-L-tBu-Ala/drawing 70]

Continued, molecule first:

Row | Structure (SMILES) | pKi (Mammalian Cathepsin S) | pKi (Mammalian Cathepsin K) | pKi (Mammalian Cathepsin L)
9 | CC(C)C[C@H](NC(=O)c1ccc(N(C)C)cc1)C(=O)N[C@H]1COCC1=O [CAP7-L-Leu/drawing 72] | 5.51 | 7.74 | 6.16
10 | CC(C)C[C@H](NC(=O)c1ccc(N(C)C)cc1)C(=O)N[C@@H]1COCC1=O [CAP7-L-Leu/drawing 73] | 5.41 | 7.64 | 5.96
11 | CCCC[C@H](NC(=O)c1ccoc1)C(=O)N[C@@H]1C(=O)CO[C@@H]1C [CAP8-L-Nle/drawing 69] | 5.82 | 4.88 | 4.26
12 | CCCC[C@H](NC(=O)c1ccoc1)C(=O)N[C@H]1C(=O)CO[C@H]1C [CAP8-L-Nle/drawing 70] | 6.00 | < 4.00 | < 4.00
13 | CC(C)CC[C@H](NC(=O)c1ccoc1)C(=O)N[C@@H]1C(=O)CO[C@@H]1C [CAP8-L-hLeu/drawing 69] | 6.01 | 4.80 | 4.41
14 | CC(C)CC[C@H](NC(=O)c1ccoc1)C(=O)N[C@H]1C(=O)CO[C@H]1C [CAP8-L-hLeu/drawing 70] | 6.35 | < 4.00 | < 4.00
15 | CC(C)CC[C@H](NC(=O)c1ccoc1)C(=O)N[C@@H]1COCC1=O [CAP8-L-hLeu/drawing 73] | 6.36 | 5.06 | 4.21
16 | CC(C)(C)CC(NC(=O)c1ccoc1)C(=O)NC1COCC1=O [CAP8-L-tBu-Ala/drawing 72] | 6.68 | 6.07 | 4.44
17 | CC(C)C[C@H](NC(=O)N1CCOCC1)C(=O)N[C@H]1C(=O)CO[C@H]1C [CAP9-L-Leu/drawing 70] | 6.10 | 5.32 | 5.10
18 | CC(C)CC[C@H](NC(=O)N1CCOCC1)C(=O)N[C@@H]1C(=O)CO[C@@H]1C [CAP9-L-hLeu/drawing 69] | 6.11 | 4.46 | 4.31
19 | CC(C)CC[C@H](NC(=O)N1CCOCC1)C(=O)N[C@H]1C(=O)CO[C@H]1C [CAP9-L-hLeu/drawing 70] | 6.15 | < 4.00 | < 4.00
20 | CC(C)CC[C@H](NC(=O)N1CCOCC1)C(=O)N[C@@H]1C(=O)CO[C@H]1C [CAP9-L-hLeu/drawing 71] | 6.28 | < 4.00 | < 4.00
21 | C[C@H]1OCC(=O)[C@H]1NC(=O)[C@H](CC(C)(C)C)NC(=O)N1CCOCC1 [CAP9-L-tBu-Ala/drawing 69] | 6.24 | 5.38 | 4.52
